Measured values as given in ChEMBL document CHEMBL6134844, “Development of Next-Generation Antimalarial Acridones with Radical Cure Potential” (J Med Chem, 2025).
pIC50: −log10 of the molar value. Calls of active or inactive are those of the source. The rule behind the calls is not given here.

Columns and labels:
[1] = Mutagenicity in Salmonella typhimurium TA100 assessed as background reversion rate up to 10 uM without S-9 metabolic activation by AMES test; assay type: toxicity; settings: salmonella enterica subsp. enterica serovar typhimurium
[2] = AUCextrap in male ICR-CD1 mouse plasma at 40 mg/kg, po; assay type: ADME, organism-based
[3] = AUC(0 to infinity) in male ICR-CD1 mouse plasma at 40 mg/kg, po; assay type: ADME, organism-based; settings: in vivo
Plasmodium yoelii [4] = experiment: In vivo antiplasmodial activity against asexual blood-stage (ABS) Plasmodium yoelii MRA-428 infected in 4-day suppression CF1 mouse model assessed as reduction in parasitemia treated 24 hrs post infection daily measured on day 4; assay type: functional
Plasmodium falciparum [5] = experiment: Antiplasmodial activity against asexual blood-stage (ABS) CQ-sensitive Plasmodium falciparum D6 infected in human erythrocytes assessed as reduction in fluorescence measured after 72 hrs by Malaria SYBR Green I-based Fluorescence (MSF) assay; assay type: functional, organism-based; settings: D6, Erythrocyte
[6] = MRTlast in male ICR-CD1 mouse plasma at 40 mg/kg, po; assay type: ADME, organism-based
[7] = Tmax in male ICR-CD1 mouse liver at 40 mg/kg, po; assay type: ADME, organism-based
Plasmodium yoelii [8] = experiment: In vivo antiplasmodial activity against asexual blood-stage (ABS) Plasmodium yoelii MRA-428 infected in 4-day suppression CF1 mouse model assessed as reduction in parasitemia by measuring cured mouse at 100 mg/kg, po single dose treated 24 hrs post infection; assay type: functional, organism-based
Plasmodium yoelii [9] = experiment: In vivo antiplasmodial activity against asexual blood-stage (ABS) Plasmodium yoelii MRA-428 infected in 4-day suppression CF1 mouse model assessed as reduction in parasitemia by measuring protection at 30 mg/kg, po treated 24 hrs post infection daily measured up to 28 days; assay type: functional, organism-based; settings: time <= 28.0 day
Plasmodium yoelii [10] = experiment: In vivo antiplasmodial activity against asexual blood-stage (ABS) Plasmodium yoelii MRA-428 infected in 4-day suppression CF1 mouse model assessed as reduction in parasitemia by measuring protection at 10 mg/kg, po treated 24 hrs post infection daily for 4 days relative to control; assay type: functional; design: scale not given: the % may be the effect or the level left
[11] = Half life in male ICR-CD1 mouse plasma at 40 mg/kg, po; assay type: ADME, organism-based
[12] = Apparent oral clearance in male ICR-CD1 mouse liver at 40 mg/kg, po; assay type: ADME, organism-based
[13] = Apparent oral clearance in male ICR-CD1 mouse plasma at 40 mg/kg, po; assay type: ADME, organism-based; settings: in vivo
[14] = Cmax in male ICR-CD1 mouse plasma at 40 mg/kg, po; assay type: ADME, organism-based
[15] = Toxicity in CF1 mouse infected with asexual blood-stage (ABS) Plasmodium yoelii MRA-428 assessed as hunching at 0.3 to 30 mg/kg, po treated 24 hrs post infection measured after 4 days; assay type: organism-based; settings: in vivo, 96 h, dose 0.3-30 mg/kg, time 4 day
[16] = biological target: Voltage-gated inwardly rectifying potassium channel KCNH2 (Homo sapiens, UniProt Q12809); experiment: Inhibition of hERG expressed in HEK293 cells by manual patch clamp assay; assay type: toxicity, cell-based
Plasmodium falciparum [17] = experiment: Synergistic antiplasmodial activity against multi-drug resistant Plasmodium falciparum Tm90-C2B assessed as fractional inhibitory concentration in presence of tafenoquine; assay type: functional
Plasmodium falciparum [18] = experiment: Antiplasmodial activity against AART-resistant Plasmodium falciparum DR4 measured after 72 hrs by drug susceptibility test; assay type: functional, organism-based; settings: DR4, 72 h
[19] = mouse, microsomes, 1 h
Plasmodium berghei = experiment: In vivo antiplasmodial activity against luciferase expressing liver stage Plasmodium berghei ANKA MRA-868 sporozoites infected in Albino C57BL/6 mouse model assessed as cured mouse at 40 mg/kg, po daily measured after 31 days; assay type: functional, organism-based; settings: time 31.0 day
Plasmodium falciparum [20] = experiment: Ex vivo antiplasmodial activity against clinical isolate Plasmodium falciparum isolated from Ugandan measured after 72 hrs by growth inhibition assay; assay type: functional, organism-based
Plasmodium falciparum [21] = experiment: Antiplasmodial activity against AART-resistant Plasmodium falciparum DR1 measured after 72 hrs by drug susceptibility test; assay type: functional, organism-based; settings: DR1, 72 h
Plasmodium falciparum [22] = experiment: Antiplasmodial activity against Plasmodium falciparum Dd2 measured after 72 hrs by drug susceptibility test; assay type: functional, organism-based; settings: Dd2, 72 h
Plasmodium falciparum [23] = experiment: Synergistic antiplasmodial activity against pan-sensitive Plasmodium falciparum D6 assessed as fractional inhibitory concentration in presence of tafenoquine; assay type: functional

Chain of Voltage-gated inwardly rectifying potassium channel KCNH2 (Q12809 whole entry): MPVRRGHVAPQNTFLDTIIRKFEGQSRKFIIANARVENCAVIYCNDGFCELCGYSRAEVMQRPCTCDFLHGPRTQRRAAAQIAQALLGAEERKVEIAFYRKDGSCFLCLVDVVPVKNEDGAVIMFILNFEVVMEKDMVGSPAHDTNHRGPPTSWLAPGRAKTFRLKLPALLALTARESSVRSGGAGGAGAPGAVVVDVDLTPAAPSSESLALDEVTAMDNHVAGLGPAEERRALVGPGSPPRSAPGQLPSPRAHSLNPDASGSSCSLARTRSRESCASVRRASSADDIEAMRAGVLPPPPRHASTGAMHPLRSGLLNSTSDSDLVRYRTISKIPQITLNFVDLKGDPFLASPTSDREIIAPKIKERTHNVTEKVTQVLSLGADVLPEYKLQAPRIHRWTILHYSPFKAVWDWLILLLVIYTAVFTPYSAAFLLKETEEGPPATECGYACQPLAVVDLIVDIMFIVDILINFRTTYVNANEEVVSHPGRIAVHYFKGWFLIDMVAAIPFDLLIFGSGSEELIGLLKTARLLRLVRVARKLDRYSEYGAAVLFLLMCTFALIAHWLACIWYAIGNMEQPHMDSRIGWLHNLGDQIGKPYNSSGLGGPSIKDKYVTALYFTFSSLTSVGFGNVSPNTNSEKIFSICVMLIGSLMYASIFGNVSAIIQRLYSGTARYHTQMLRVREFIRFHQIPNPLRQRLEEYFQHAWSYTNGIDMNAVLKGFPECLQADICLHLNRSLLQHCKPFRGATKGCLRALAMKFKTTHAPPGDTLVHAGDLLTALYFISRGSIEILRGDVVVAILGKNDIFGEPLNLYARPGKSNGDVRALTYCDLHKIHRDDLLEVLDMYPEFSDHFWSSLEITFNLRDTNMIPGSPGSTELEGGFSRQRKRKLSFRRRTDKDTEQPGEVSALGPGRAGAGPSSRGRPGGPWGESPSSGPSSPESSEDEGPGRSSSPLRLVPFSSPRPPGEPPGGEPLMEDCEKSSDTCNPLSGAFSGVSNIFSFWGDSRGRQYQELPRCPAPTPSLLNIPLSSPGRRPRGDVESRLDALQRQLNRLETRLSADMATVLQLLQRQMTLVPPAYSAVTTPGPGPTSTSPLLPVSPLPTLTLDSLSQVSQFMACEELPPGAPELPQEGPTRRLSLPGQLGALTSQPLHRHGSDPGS

SMILES	Activity [1]	pIC50 (Plasmodium falciparum [5])	MRT last [6]	Tmax [7]	Activity (Plasmodium yoelii [8])	Activity (Plasmodium yoelii [9])	CL/F [12]	Cmax [14]	Activity [15]	further results
O=c1c2c([nH]c3cc(Oc4ccc(OC(F)(F)F)cc4)c(F)cc13)CCCC2	Non-toxic	10.82	2.95 h	0.5 h	Active	Active; Out Of 4 - 3 Mouse Cured	3.58 mL/min/kg	42.1 ng/mL	Non-toxic	AUC [2]: 23.7%; AUC [3]: 219 ng·h/mL; ED50 (Plasmodium yoelii [4]): 1.5 mg/kg; ED90 (Plasmodium yoelii [4]): 4.7 mg/kg; Activity (Plasmodium yoelii [10]): 100%; half-life [11]: 3.89 h; CL/F [13]: 87.98 mL/min/kg
O=c1c2c([nH]c3cc(Oc4ccc(OC(F)(F)F)cc4)ccc13)CCCC2	Non-toxic	9.51	4.1 h	4 h	Active	Active; Out Of 4 - 3 Mouse Cured	0.542 mL/min/kg	83 ng/mL	Non-toxic	pIC50 [16]: < 5.00; FIC (Plasmodium falciparum [17]): 0.76; pIC50 (Plasmodium falciparum [18]): 8.27; t1/2 [19]: 0.197 h; Activity (Plasmodium berghei): Active; Out Of 5 - 5 Mouse Cured; pIC50 (Plasmodium falciparum [20]): 7.98; pIC50 (Plasmodium falciparum [21]): 8.28; pIC50 (Plasmodium falciparum [22]): 8.69; FIC (Plasmodium falciparum [23]): 0.81
